Experimental data from the NIST ThermoML archive (doi:10.1016/j.fluid.2009.01.011).
Numbers after ± are expanded uncertainties.

Assay: activity coefficient (dimensionless); of the first substance listed, at infinite dilution; xn = mol fraction of the nth substance listed
Conditions: Liquid, Chromatography, x1 = 0

| SMILES | activity coefficient (308.15 K) | activity coefficient (318.15 K) | activity coefficient (328.15 K) | activity coefficient (338.15 K) | activity coefficient (348.15 K) | activity coefficient (358.15 K) | activity coefficient (368.15 K) | activity coefficient (298.15 K) |
| --- | --- | --- | --- | --- | --- | --- | --- | --- |
| Cc1ccccc1C [1,2-dimethylbenzene] + CCCC[N+]1(C)CCCC1.O=S(=O)([O-])C(F)(F)F | 2.91 ± 0.13 | 2.93 ± 0.13 | 2.95 ± 0.13 | 2.97 ± 0.13 | 2.99 ± 0.13 | 3.01 ± 0.13 | 3.03 ± 0.13 | – |
| Cc1cccc(C)c1 [1,3-dimethylbenzene] + CCCC[N+]1(C)CCCC1.O=S(=O)([O-])C(F)(F)F | 3.44 ± 0.15 | 3.45 ± 0.15 | 3.47 ± 0.15 | 3.48 ± 0.15 | 3.5 ± 0.15 | 3.51 ± 0.15 | 3.53 ± 0.16 | – |
| Cc1ccc(C)cc1 [1,4-dimethylbenzene] + CCCC[N+]1(C)CCCC1.O=S(=O)([O-])C(F)(F)F | 3.32 ± 0.15 | 3.35 ± 0.15 | 3.38 ± 0.15 | 3.4 ± 0.15 | 3.43 ± 0.15 | 3.45 ± 0.15 | 3.48 ± 0.15 | – |
| C=CCCCCC [1-heptene] + CCCC[N+]1(C)CCCC1.O=S(=O)([O-])C(F)(F)F | 27.5 ± 1.2 | 26.1 ± 1.2 | 24.8 ± 1.1 | 23.6 ± 1 | 22.6 ± 1 | 21.6 ± 1 | 20.8 ± 0.9 | 29 ± 1.3 |
| C#CCCCCC [1-heptyne] + CCCC[N+]1(C)CCCC1.O=S(=O)([O-])C(F)(F)F | 5.3 ± 0.23 | 5.39 ± 0.24 | 5.47 ± 0.24 | 5.56 ± 0.25 | 5.64 ± 0.25 | 5.7 ± 0.25 | 5.78 ± 0.25 | 5.21 ± 0.23 |
| C#CCCCC [1-hexyne] + CCCC[N+]1(C)CCCC1.O=S(=O)([O-])C(F)(F)F | 3.66 ± 0.16 | 3.76 ± 0.17 | 3.85 ± 0.17 | 3.94 ± 0.17 | 4.02 ± 0.18 | 4.09 ± 0.18 | 4.18 ± 0.18 | 3.57 ± 0.16 |
| C#CCCCCCC [1-octyne] + CCCC[N+]1(C)CCCC1.O=S(=O)([O-])C(F)(F)F | 7.63 ± 0.34 | 7.7 ± 0.34 | 7.76 ± 0.34 | 7.83 ± 0.35 | 7.88 ± 0.35 | 7.94 ± 0.35 | 7.99 ± 0.35 | 7.56 ± 0.33 |
| C=CCCC [1-pentene] + CCCC[N+]1(C)CCCC1.O=S(=O)([O-])C(F)(F)F | 16.3 ± 0.7 | 15.3 ± 0.7 | 14.4 ± 0.6 | 13.5 ± 0.6 | 12.8 ± 0.6 | 12.2 ± 0.5 | – | 17.6 ± 0.8 |
| C#CCCC [1-pentyne] + CCCC[N+]1(C)CCCC1.O=S(=O)([O-])C(F)(F)F | 2.66 ± 0.12 | 2.74 ± 0.12 | 2.82 ± 0.12 | 2.88 ± 0.13 | 2.95 ± 0.13 | 3.01 ± 0.13 | 3.08 ± 0.14 | 2.59 ± 0.11 |
| COC(C)(C)C [2-methoxy-2-methylpropane] + CCCC[N+]1(C)CCCC1.O=S(=O)([O-])C(F)(F)F | 5.65 ± 0.25 | 5.64 ± 0.25 | 5.63 ± 0.25 | 5.62 ± 0.25 | 5.6 ± 0.25 | 5.59 ± 0.25 | 5.58 ± 0.25 | 5.67 ± 0.25 |
| c1ccccc1 [benzene] + CCCC[N+]1(C)CCCC1.O=S(=O)([O-])C(F)(F)F | 1.44 ± 0.06 | 1.46 ± 0.06 | 1.48 ± 0.06 | 1.5 ± 0.06 | 1.53 ± 0.06 | 1.54 ± 0.06 | 1.56 ± 0.06 | 1.41 ± 0.06 |
| CCCCO [butan-1-ol] + CCCC[N+]1(C)CCCC1.O=S(=O)([O-])C(F)(F)F | – | – | 1.49 ± 0.06 | 1.42 ± 0.06 | 1.35 ± 0.05 | 1.29 ± 0.05 | 1.24 ± 0.05 | – |
| C1CCCCCC1 [cycloheptane] + CCCC[N+]1(C)CCCC1.O=S(=O)([O-])C(F)(F)F | 27 ± 1.2 | 24.9 ± 1.1 | 23.1 ± 1 | 21.6 ± 1 | 20.1 ± 0.9 | 18.9 ± 0.8 | 17.9 ± 0.8 | 29.3 ± 1.3 |
| C1CCCCC1 [cyclohexane] + CCCC[N+]1(C)CCCC1.O=S(=O)([O-])C(F)(F)F | 23.4 ± 1 | 21.4 ± 1 | 19.7 ± 0.9 | 18.1 ± 0.8 | 16.8 ± 0.7 | 15.6 ± 0.7 | 14.6 ± 0.6 | 25.7 ± 1.1 |
| C1CCCCCCC1 [cyclooctane] + CCCC[N+]1(C)CCCC1.O=S(=O)([O-])C(F)(F)F | 34 ± 1.5 | 31.4 ± 1.4 | 29.1 ± 1.3 | 26.9 ± 1.2 | 25.1 ± 1.1 | 23.5 ± 1 | 22.2 ± 1 | 37.4 ± 1.7 |
| C1CCCC1 [cyclopentane] + CCCC[N+]1(C)CCCC1.O=S(=O)([O-])C(F)(F)F | 17.4 ± 0.8 | 15.9 ± 0.7 | 14.6 ± 0.6 | 13.5 ± 0.6 | 12.6 ± 0.6 | 11.7 ± 0.5 | 11 ± 0.5 | 19.2 ± 0.9 |
| CCCCCCCCCC [decane] + CCCC[N+]1(C)CCCC1.O=S(=O)([O-])C(F)(F)F | 174 ± 8 | 157 ± 7 | 143 ± 6 | 130 ± 6 | 120 ± 5 | 110 ± 5 | 101 ± 5 | 195 ± 9 |
| CCO [ethanol] + CCCC[N+]1(C)CCCC1.O=S(=O)([O-])C(F)(F)F | 1 ± 0.04 | 0.948 ± 0.034 | 0.9 ± 0.033 | 0.862 ± 0.032 | 0.827 ± 0.032 | 0.791 ± 0.031 | 0.763 ± 0.031 | 1.05 ± 0.04 |
| CCc1ccccc1 [ethylbenzene] + CCCC[N+]1(C)CCCC1.O=S(=O)([O-])C(F)(F)F | 3.45 ± 0.15 | 3.46 ± 0.15 | 3.48 ± 0.15 | 3.5 ± 0.15 | 3.51 ± 0.15 | 3.53 ± 0.16 | 3.54 ± 0.16 | 3.43 ± 0.15 |
| CCCCCCC [heptane] + CCCC[N+]1(C)CCCC1.O=S(=O)([O-])C(F)(F)F | 64.7 ± 2.9 | 59.3 ± 2.6 | 54.2 ± 2.4 | 50.4 ± 2.2 | 46.7 ± 2.1 | 43.3 ± 1.9 | 40.8 ± 1.8 | 71.5 ± 3.2 |
| C=CCCCC [hex-1-ene] + CCCC[N+]1(C)CCCC1.O=S(=O)([O-])C(F)(F)F | 20.2 ± 0.9 | 19.2 ± 0.9 | 18.1 ± 0.8 | 17.3 ± 0.8 | 16.4 ± 0.7 | 15.7 ± 0.7 | 15 ± 0.7 | 21.6 ± 1 |
| CCCCCC [hexane] + CCCC[N+]1(C)CCCC1.O=S(=O)([O-])C(F)(F)F | 50.6 ± 2.3 | 46.4 ± 2.1 | 42.2 ± 1.9 | 38.8 ± 1.7 | 35.8 ± 1.6 | 33.3 ± 1.5 | 31.3 ± 1.4 | 55.8 ± 2.5 |
